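All cell lines were grown in 96-well plates and treated with compound for 48 hours. Abbreviation: GI50, concentration required for 50% inhibition of growth.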 The source made the active and inactive calls. No stated cut-off is given here; in the data, active = GI50 up to about 1.1 µM and inactive = higher.
Experiments:
Assay in all cases: DTP human tumour cell line panel, 48 h
KM12 = test system: KM12
LOX IMVI = test system: LOX IMVI
NCI-H522 = test system: NCI-H522
DU-145 = test system: DU-145
IGROV-1 = test system: IGROV-1
MOLT-4 = test system: MOLT-4
A498 = test system: A498
SK-MEL-2 = test system: SK-MEL-2
786-0 = test system: 786-0
MCF7 = test system: MCF7
Hs-578T = test system: Hs-578T
UACC-257 = test system: UACC-257
HT-29 = test system: HT-29
RPMI-8226 = test system: RPMI-8226
OVCAR-3 = test system: OVCAR-3
OVCAR-5 = test system: OVCAR-5
A549 = test system: A549
HCC 2998 = test system: HCC 2998
Malme-3M = test system: Malme-3M
HOP-92 = test system: HOP-92

Measured: GI50

COc1cc([N+](=O)[O-])c(S(=O)(=O)O)cc1N
inactive: KM12 > 100 µM | LOX IMVI > 100 µM | NCI-H522 > 100 µM | DU-145 > 100 µM | IGROV-1 > 100 µM | MOLT-4 > 100 µM | A498 > 100 µM | SK-MEL-2 > 100 µM | 786-0 > 100 µM | MCF7 > 100 µM | Hs-578T > 100 µM | UACC-257 > 100 µM | HT-29 > 100 µM | RPMI-8226 > 100 µM | OVCAR-3 > 100 µM | OVCAR-5 > 100 µM | A549 > 100 µM

CC(C)(C)c1cc(S(=O)(=O)O)c2oc(-c3ccccc3)cc(=O)c2c1
inactive: KM12 > 100 µM | LOX IMVI > 100 µM | NCI-H522 > 100 µM | DU-145 > 100 µM | IGROV-1 > 100 µM | MOLT-4 > 100 µM | 786-0 > 100 µM | MCF7 > 100 µM | Hs-578T > 100 µM | HCC 2998 > 100 µM | UACC-257 > 100 µM | HT-29 > 100 µM | RPMI-8226 > 100 µM | OVCAR-3 > 100 µM | A549 > 100 µM | Malme-3M > 100 µM

O=C1c2ccccc2-c2ccc(O)cc21
inactive: KM12 16.8 µM | LOX IMVI 40.1 µM | NCI-H522 16.1 µM | DU-145 20.1 µM | IGROV-1 18.6 µM | MOLT-4 16.1 µM | A498 21.5 µM | SK-MEL-2 21.5 µM | 786-0 36.1 µM | MCF7 21.2 µM | Hs-578T 33.6 µM | UACC-257 19.6 µM | HT-29 30.7 µM | RPMI-8226 39 µM | OVCAR-5 26.7 µM | A549 25.9 µM | Malme-3M 23.4 µM

CC(C)[Si](OC1=C(C(=O)N(C)c2cccc(Cl)c2)CCCC1)(C(C)C)C(C)C
inactive: KM12 13.5 µM | LOX IMVI 17.3 µM | DU-145 11.7 µM | IGROV-1 17.2 µM | MOLT-4 10.4 µM | A498 16.9 µM | SK-MEL-2 15.5 µM | 786-0 18.3 µM | MCF7 12.3 µM | Hs-578T 12.5 µM | HCC 2998 17 µM | UACC-257 12.5 µM | HT-29 15.3 µM | RPMI-8226 8.73 µM | OVCAR-3 14 µM | HOP-92 12.4 µM | OVCAR-5 10.1 µM | A549 4.41 µM | Malme-3M 11.7 µM
